Data: patent publication US10508104B2, “6-hydroxy-5-(phenyl/heteroarylsulfonyl)pyrimidin-4(1H)-one as APJ agonists” (Bristol-Myers Squibb Company, priority 2016, dated 2019)

Target: human APJ receptor (Homo sapiens (Human), UniProt P35414)
Test: Intracellular cAMP accumulation assay (APJ hcAMP, HTRF)
Format: cell-based
Settings: HEK293 cells stably expressing human APJ receptor; inhibition of forskolin-mediated cAMP production; read-out: Human APJ cAMP EC50 Potency range
How it was run: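 HEK293 cells stably expressing human APJ, 5,000 per well, incubated 30 min at rt with compound, […] and 2 μM forskolin. cAMP measured by HTRF against a cAMP standard curve as inhibition of forskolin-driven production. EC50 from variable-slope sigmoidal fit.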

Sequence of human APJ receptor (P35414 whole entry): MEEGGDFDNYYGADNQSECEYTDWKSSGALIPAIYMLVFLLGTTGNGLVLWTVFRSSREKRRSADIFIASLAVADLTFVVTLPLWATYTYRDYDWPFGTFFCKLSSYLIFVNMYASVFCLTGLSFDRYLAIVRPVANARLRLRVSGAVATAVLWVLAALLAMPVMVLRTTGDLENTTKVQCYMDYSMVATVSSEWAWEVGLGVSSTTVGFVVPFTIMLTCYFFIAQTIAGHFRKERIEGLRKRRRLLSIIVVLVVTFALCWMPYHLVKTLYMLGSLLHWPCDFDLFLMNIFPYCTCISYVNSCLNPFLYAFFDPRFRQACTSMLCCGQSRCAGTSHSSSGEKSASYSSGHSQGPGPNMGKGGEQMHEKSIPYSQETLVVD

Question: Which EC50 does the source give for `CCOCc1nc(=O)c(S(=O)(=O)c2ccc(-c3ccncc3C)cc2)c(O)n1[C@@H](CC)c1cccc(C#N)c1` [Example 434, 3-[(1S)-1-[2-(ethoxymethyl)-6-hydroxy-5-[4-(3-methylpyridin-4-yl)benzenesulfonyl]-4-oxo-1,4-dihydropyrimidin-1-yl]propyl]benzonitrile] here?
Answer: Its EC50 is 0.01 to 10 nM.

Question: Which EC50 does the source give for `CCOCc1nc(=O)c(S(=O)(=O)c2ccc(-c3cccnc3C)cc2)c(O)n1[C@@H](CC)c1cccc(C#N)c1` [Example 435, 3-[(1S)-1-[2-(ethoxymethyl)-6-hydroxy-5-[4-(2-methylpyridin-3-yl)benzenesulfonyl]-4-oxo-1,4-dihydropyrimidin-1-yl]propyl]benzonitrile] here?
Answer: Its EC50 is 0.01 to 10 nM.

Question: `CCOCc1nc(=O)c(S(=O)(=O)c2ccc(-c3ccc(F)nc3C)cc2)c(O)n1[C@@H](CC)c1cccc(C#N)c1` [Example 436, 3-[(1S)-1-[2-(ethoxymethyl)-5-[4-(6-fluoro-2-methylpyridin-3-yI)benzenesulfonyl]-6-hydroxy-4-oxo-1,4-dihydropyrimidin-1-yl]propyl]benzonitrile] was tested. Which EC50 did it give?
Answer: Its EC50 is 0.01 to 10 nM.

Question: For `CCOCc1nc(=O)c(S(=O)(=O)c2ccc(-c3ccnc(F)c3C)cc2)c(O)n1[C@@H](CC)c1cccc(C#N)c1` [Example 437, 3-[(1S)-1-[2-(ethoxymethyl)-5-[4-(2-fluoro-3-methylpyridin-4-yl)benzenesulfonyl]-6-hydroxy-4-oxo-1,4-dihydropyrimidin-1-yl]propyl]benzonitrile], which EC50 is on record?
Answer: Its EC50 is 0.01 to 10 nM.

Question: With `CCCCc1nc(=O)c(S(=O)(=O)c2ccc(-c3ccnc(F)c3C)cc2)c(O)n1[C@@H](CC)c1ccc(F)c(C#N)c1` [Example 438, 5-[(1S)-1-{2-butyl-5-[4-(2-fluoro-3-methylpyridin-4-yl)benzenesulfonyl]-6-hydroxy-4-oxo-1,4-dihydropyrimidin-1-yl}propyl]-2-fluorobenzonitrile] as the compound, how does the EC50 read?
Answer: Its EC50 is 0.01 to 10 nM.

Question: For `CCCCc1nc(=O)c(S(=O)(=O)c2ccc(-c3cccnc3C)cc2)c(O)n1[C@@H](CC)c1ccc(F)c(C#N)c1` [Example 439, 5-[(1S)-1-{2-butyl-6-hydroxy-5-[4-(2-methylpyridin-3-yl)benzenesulfonyl]-4-oxo-1,4-dihydropyrimidin-1-yl}propyl]-2-fluorobenzonitrile], which EC50 is on record?
Answer: Its EC50 is 0.01 to 10 nM.

Question: For `CCCCc1nc(=O)c(S(=O)(=O)c2ccc(-c3ccc(F)nc3C)cc2)c(O)n1[C@@H](CC)c1ccc(F)c(C#N)c1` [Example 440, 5-[(1S)-1-{2-butyl-5-[4-(6-fluoro-2-methylpyridin-3-yl)benzenesulfonyl]-6-hydroxy-4-oxo-1,4-dihydropyrimidin-1-yl}propyl]-2-fluorobenzonitrile], which EC50 is on record?
Answer: Its EC50 is 0.01 to 10 nM.

Question: `CC[C@@H](c1cccc(C#N)c1)n1c(CC2CC2)nc(=O)c(S(=O)(=O)c2ccc(-c3ccncc3C)cc2)c1O` [Example 441, 3-[(1S)-1-[2-(cyclopropylmethyl)-6-hydroxy-5-[4-(3-methylpyridin-4-yl)benzenesulfonyl]-4-oxo-1,4-dihydropyrimidin-1-yl]propyl]benzonitrile] was tested. Which EC50 did it give?
Answer: Its EC50 is 0.01 to 10 nM.

Question: How did the EC50 turn out when `CC[C@@H](c1cccc(C#N)c1)n1c(CC2CC2)nc(=O)c(S(=O)(=O)c2ccc(-c3ccnc(F)c3C)cc2)c1O` [Example 442, 3-[(1S)-1-[2-(cyclopropylmethyl)-5-[4-(2-fluoro-3-methylpyridin-4-yl)benzenesulfonyl]-6-hydroxy-4-oxo-1,4-dihydropyrimidin-1-yl]propyl]benzonitrile] was run?
Answer: The EC50 was 0.01 to 10 nM.

Question: For `CC[C@@H](c1cccc(C#N)c1)n1c(CC2CC2)nc(=O)c(S(=O)(=O)c2ccc(-c3cccnc3C)cc2)c1O` [Example 443, 3-[(1S)-1-[2-(cyclopropylmethyl)-6-hydroxy-5-[4-(2-methylpyridin-3-yl)benzenesulfonyl]-4-oxo-1,4-dihydropyrimidin-1-yl]propyl]benzonitrile], which EC50 is on record?
Answer: Its EC50 is 0.01 to 10 nM.

Question: With `CC[C@@H](c1cccc(C#N)c1)n1c(CC2CC2)nc(=O)c(S(=O)(=O)c2ccc(-c3ccc(F)nc3C)cc2)c1O` [Example 444, 3-[(1S)-1-[2-(cyclopropylmethyl)-5-[4-(6-fluoro-2-methylpyridin-3-yl)benzenesulfonyl]-6-hydroxy-4-oxo-1,4-dihydropyrimidin-1-yl]propyl]benzonitrile] as the compound, how does the EC50 read?
Answer: Its EC50 is 0.01 to 10 nM.

Question: Which EC50 does the source give for `CCOCc1nc(=O)c(S(=O)(=O)c2ccc(-c3cccnc3C)cc2)c(O)n1[C@@H](CC)c1cccc(C#N)c1` [Example 445, 3-[(1S)-1-[2-(ethoxymethyl)-6-hydroxy-5-[4-(2-methylpyridin-3-yl)benzenesulfonyl]-4-oxo-1,4-dihydropyrimidin-1-yl]propyl]benzonitrile] here?
Answer: The EC50 was 0.01 to 10 nM.

Question: Which EC50 does the source give for `CCCCc1nc(=O)c(S(=O)(=O)c2ccc(-c3ccnc(F)c3C)cc2)c(O)n1[C@@H](CC)c1cc(F)cc(F)c1` [Example 446, 2-butyl-1-[(1S)-1-(3,5-difluorophenyl)propyl]-5-[4-(2-fluoro-3-methylpyridin-4-yl)benzenesulfonyl]-6-hydroxy-1,4-dihydropyrimidin-4-one] here?
Answer: Its EC50 is 0.01 to 10 nM.

Question: For `CCCCc1nc(=O)c(S(=O)(=O)c2ccc(-c3ccncc3C)cc2)c(O)n1[C@H](c1cccc(C#N)c1)C(C)C` [Example 447, 3-[(1S)-1-{2-butyl-6-hydroxy-5-[4-(3-methylpyridin-4-yl)benzenesulfonyl]-4-oxo-1,4-dihydropyrimidin-1-yl}-2-methylpropyl]benzonitrile], which EC50 is on record?
Answer: Its EC50 is 0.01 to 10 nM.

Question: With `CCCCc1nc(=O)c(S(=O)(=O)c2ccc(-c3cccnc3C)cc2)c(O)n1[C@H](c1cccc(C#N)c1)C(C)C` [Example 448, 3-[(1S)-1-{2-butyl-6-hydroxy-5-[4-(2-methylpyridin-3-yl)benzenesulfonyl]-4-oxo-1,4-dihydropyrimidin-1-yl}-2-methylpropyl]benzonitrile] as the compound, how does the EC50 read?
Answer: Its EC50 is 0.01 to 10 nM.

Question: Which EC50 does the source give for `CCCCc1nc(=O)c(S(=O)(=O)c2ccc(-c3cccnc3C)cc2)c(O)n1[C@@H](CC)c1cc(F)cc(C#N)c1` [Example 449, 3-[(1S)-1-{2-butyl-6-hydroxy-5-[4-(2-methylpyridin-3-yl)benzenesulfonyl]-4-oxo-1,4-dihydropyrimidin-1-yl}propyl]-5-fluorobenzonitrile] here?
Answer: Its EC50 is 0.01 to 10 nM.

Question: With `CCCCc1nc(=O)c(S(=O)(=O)c2ccc(-c3ccncc3C)cc2)c(O)n1[C@@H](CC)c1cc(F)cc(C#N)c1` [Example 450, 3-[(1S)-1-{2-butyl-6-hydroxy-5-[4-(3-methylpyridin-4-yl)benzenesulfonyl]-4-oxo-1,4-dihydropyrimidin-1-yl}propyl]-5-fluorobenzonitrile] as the compound, how does the EC50 read?
Answer: The EC50 was 0.01 to 10 nM.

Question: With `CCCCc1nc(=O)c(S(=O)(=O)c2ccc(-c3ccnc(F)c3C)cc2)c(O)n1[C@H](c1cccc(C#N)c1)C(C)C` [Example 451, 3-[(1S)-1-{2-butyl-5-[4-(2-fluoro-3-methylpyridin-4-yl)benzenesulfonyl]-6-hydroxy-4-oxo-1,4-dihydropyrimidin-1-yl}-2-methylpropyl]benzonitrile] as the compound, how does the EC50 read?
Answer: The EC50 was 0.01 to 10 nM.

Question: Which EC50 does the source give for `CCCCc1nc(=O)c(S(=O)(=O)c2ccc(-c3ccc(F)nc3C)cc2)c(O)n1[C@H](c1cccc(C#N)c1)C(C)C` [Example 452, 3-[(1S)-1-{2-butyl-5-[4-(6-fluoro-2-methylpyridin-3-yl)benzenesulfonyl]-6-hydroxy-4-oxo-1,4-dihydropyrimidin-1-yl}-2-methylpropyl]benzonitriIe] here?
Answer: The EC50 was 0.01 to 10 nM.

Question: Which EC50 does the source give for `CCCCc1nc(=O)c(S(=O)(=O)c2ccc(-c3ccc(F)nc3C)cc2)c(O)n1[C@@H](CC)c1cc(F)cc(C#N)c1` [Example 453, 3-[(1S)-1-{2-butyl-5-[4-(6-fluoro-2-methylpyridin-3-yl)benzenesulfonyl]-6-hydroxy-4-oxo-1,4-dihydropyrimidin-1-yl}propyl]-5-fluorobenzonitrile] here?
Answer: The EC50 was 0.01 to 10 nM.

Question: `CCCCc1nc(=O)c(S(=O)(=O)c2ccc(-c3ccc(F)nc3C)cn2)c(O)n1[C@@H](CC)c1cccc(C#N)c1` [Example 454, 3-[(1S)-1-[2-butyl-5-({6′-fluoro-2′-methyl-[3,3′-bipyridine]-6-yl}sulfonyl)-6-hydroxy-4-oxo-1,4-dihydropyrimidin-1-yl]propyl]benzonitrile] was tested. Which EC50 did it give?
Answer: The EC50 was 0.01 to 10 nM.

Question: For `CCCCc1nc(=O)c(S(=O)(=O)c2ccc(-c3cccnc3C)cn2)c(O)n1[C@@H](CC)c1cccc(C#N)c1` [Example 455, 3-[(1S)-1-[2-butyl-6-hydroxy-5-({2′-methyl-[3,3′-bipyridine]-6-yl}sulfonyl)-4-oxo-1,4-dihydropyrimidin-1-yl]propyl]benzonitrile], which EC50 is on record?
Answer: Its EC50 is 0.01 to 10 nM.

Question: How did the EC50 turn out when `CCCCc1nc(=O)c(S(=O)(=O)c2ccc(-c3ccnc(F)c3C)cn2)c(O)n1[C@@H](CC)c1cccc(C#N)c1` [Example 456, 3-[(1S)-1-[2-butyl-5-({2′-fluoro-3′-methyl-[3,4′-bipyridine]-6-yl}sulfonyl)-6-hydroxy-4-oxo-1,4-dihydropyrimidin-1-yl]propyl]benzonitrile] was run?
Answer: Its EC50 is 0.01 to 10 nM.

Question: Which EC50 does the source give for `CCCCc1nc(=O)c(S(=O)(=O)c2ccc(-c3ccncc3C)cn2)c(O)n1[C@@H](CC)c1cccc(C#N)c1` [Example 457, 3-[(1S)-1-[2-butyl-6-hydroxy-5-({3′-methyl-[3,4′-bipyridine]-6-yl}sulfonyl)-4-oxo-1,4-dihydropyrimidin-1-yl]propyl]benzonitrile] here?
Answer: Its EC50 is 0.01 to 10 nM.

Question: Which EC50 does the source give for `CCCCc1nc(=O)c(S(=O)(=O)c2ccc(-c3ccnc(F)c3C)cc2)c(O)n1[C@@H](CC)c1cc(F)cc(C#N)c1` [Example 458, 3-[(1S)-1-{2-butyl-5-[4-(2-fluoro-3-methylpyridin-4-yl)benzenesulfonyl]-6-hydroxy-4-oxo-1,4-dihydropyrimidin-1-yl}propyl]-5-fluorobenzonitrile] here?
Answer: The EC50 was 0.01 to 10 nM.

Question: For `CCCCc1nc(=O)c(S(=O)(=O)c2ccc(-c3ccnc(F)c3C)cc2)c(O)n1C(c1cccc(C#N)c1)C1CC1` (stereo not drawn) [Example 459, 3-({2-butyl-5-[4-(2-fluoro-3-methylpyridin-4-yl)benzenesulfonyl]-6-hydroxy-4-oxo-1,4-dihydropyrimidin-1-yl}(cyclopropyl)methyl) benzonitrile], which EC50 is on record?
Answer: The EC50 was 0.01 to 10 nM.

Question: How did the EC50 turn out when `CCCCc1nc(=O)c(S(=O)(=O)c2ccc(-c3cccnc3C)cc2)c(O)n1C(c1cccc(C#N)c1)C1CC1` (stereo not drawn) [Example 460, 3-({2-butyl-6-hydroxy-5-[4-(2-methylpyridin-3-yl)benzenesulfonyl]-4-oxo-1,4-dihydropyrimidin-1-yl}(cyclopropyl)methyl) benzonitrile] was run?
Answer: The EC50 was 0.01 to 10 nM.
